# How the values were obtained:
# [1] = tested on: Mus musculus; test: Anticonvulsant activity in ip dosed sc-PTZ induced Kunming mouse model assessed as effective dose measured after 0.5 hrs […]; format: functional
# [2] = Neurotoxicity in ip dosed sc-PTZ induced Kunming mouse measured after 0.5 hrs by rotarod test; format: toxicity, organism-based; conditions: in vivo
# [3] = tested on: Mus musculus; test: Antiepileptic activity in PTZ induced Kunming mouse model assessed as protection of seizure at 30 mg/kg, ip incubated for 30 min prior to PTZ stimulation relative to control; format: functional; conditions: 0.5 h
# [4] = Drug concentration in male Sprague-Dawley rat brain at 30 mg/kg, IG administered once measured after 0.25 to 8 hrs by HPLC analysis; format: ADME, organism-based; conditions: in vivo, po, time 0.25-8 hrs
# [5] = tested on: Mus musculus; test: Anticonvulsant activity in MES-induced seizure Kunming mouse model assessed as protection against tonic hind limb extension at 30 mg/kg, ip measured after 30 min; format: functional, organism-based
# [6] = molecular target: GABA-A receptor; alpha-1/beta-2/gamma-2 (Homo sapiens) (UniProt P14867+P47870+P18507); test: Potentiation of recombinant human alpha1/beta2/gamma2 GABA receptor expressed in T-REX-CHO cells assessed as fold increase in current amplitude by measuring maximum efficacy by whole-cell patch clamp assay; format: cell-based; conditions: filed as activator, time 24-48 hrs
# [7] = Protection index, ratio of TD50 for neurotoxicity in ip dosed scPTZ induced Kunming mouse to ED50 for anticonvulsant activity in ip dosed scPTZ induced Kunming mouse; format: toxicity, organism-based; conditions: in vivo, read-out: Ratio TD50/ED50
# [8] = Drug concentration in male Sprague-Dawley rat plasma at 30 mg/kg, IG administered once measured after 0.25 to 8 hrs by HPLC analysis; format: ADME, organism-based; conditions: in vivo, po, time 0.25-8 hrs
# [9] = molecular target: Sodium channel protein type 2 subunit alpha (Homo sapiens, UniProt Q99250); test: Inhibition of Nav 1.2 (unknown origin) expressed in HEK293 cells at -20 mV to -120 mV holding potential under inactivation state by whole-cell patch clamp analysis; format: cell-based
# [10] = molecular target: GABA-A receptor; anion channel (Rattus norvegicus) (UniProt O09028+P15431+P18506+P18508+P19969+P20236+P23574+P23576+P28471+P28473+P30191+P62813+P63079+P63138+Q91ZM7+Q9ES14); test: Potentiation of GABAA receptor in Sprague-Dawley rat hippocampal neurons assessed as increase in current amplitude by whole-cell voltage-clamp assay; format: cell-based; conditions: Hippocampal neuron, filed as activator, dose 0.1-10 µM
# [11] = molecular target: T1, GABA-A receptor; alpha-1/beta-2/gamma-2 (Homo sapiens, UniProt P14867+P18507+P47870); test: Potentiation of recombinant human alpha1/beta2/gamma2 GABA receptor expressed in T-REX-CHO cells assessed as increase in current amplitude by whole-cell patch clamp assay; format: cell-based
# T1 sequence (P14867 whole entry): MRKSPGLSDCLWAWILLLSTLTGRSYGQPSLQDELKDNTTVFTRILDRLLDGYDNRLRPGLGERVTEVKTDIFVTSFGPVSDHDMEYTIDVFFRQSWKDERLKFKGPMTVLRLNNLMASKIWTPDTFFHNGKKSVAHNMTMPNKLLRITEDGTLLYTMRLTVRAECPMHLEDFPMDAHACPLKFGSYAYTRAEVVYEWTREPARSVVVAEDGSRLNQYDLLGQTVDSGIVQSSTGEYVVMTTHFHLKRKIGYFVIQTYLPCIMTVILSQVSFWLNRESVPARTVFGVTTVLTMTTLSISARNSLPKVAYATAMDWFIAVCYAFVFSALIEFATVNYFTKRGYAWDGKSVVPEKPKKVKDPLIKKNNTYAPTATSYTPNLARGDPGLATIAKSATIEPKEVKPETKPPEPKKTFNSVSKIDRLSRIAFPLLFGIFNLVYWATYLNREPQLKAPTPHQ
# T1 sequence (P47870 whole entry): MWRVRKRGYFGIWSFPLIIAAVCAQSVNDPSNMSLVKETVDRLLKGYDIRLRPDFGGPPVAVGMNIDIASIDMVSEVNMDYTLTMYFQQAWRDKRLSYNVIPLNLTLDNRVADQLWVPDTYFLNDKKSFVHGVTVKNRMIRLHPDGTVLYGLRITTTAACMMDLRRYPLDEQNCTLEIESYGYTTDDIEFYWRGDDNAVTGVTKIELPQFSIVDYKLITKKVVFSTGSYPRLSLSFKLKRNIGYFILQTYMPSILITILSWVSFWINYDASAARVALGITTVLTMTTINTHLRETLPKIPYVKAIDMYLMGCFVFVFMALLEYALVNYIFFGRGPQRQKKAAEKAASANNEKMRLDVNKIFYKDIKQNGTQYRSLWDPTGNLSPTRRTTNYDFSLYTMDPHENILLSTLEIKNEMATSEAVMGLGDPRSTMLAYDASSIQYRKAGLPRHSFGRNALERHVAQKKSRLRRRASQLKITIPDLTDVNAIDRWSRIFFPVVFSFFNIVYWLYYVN
# T1 sequence (P18507 whole entry): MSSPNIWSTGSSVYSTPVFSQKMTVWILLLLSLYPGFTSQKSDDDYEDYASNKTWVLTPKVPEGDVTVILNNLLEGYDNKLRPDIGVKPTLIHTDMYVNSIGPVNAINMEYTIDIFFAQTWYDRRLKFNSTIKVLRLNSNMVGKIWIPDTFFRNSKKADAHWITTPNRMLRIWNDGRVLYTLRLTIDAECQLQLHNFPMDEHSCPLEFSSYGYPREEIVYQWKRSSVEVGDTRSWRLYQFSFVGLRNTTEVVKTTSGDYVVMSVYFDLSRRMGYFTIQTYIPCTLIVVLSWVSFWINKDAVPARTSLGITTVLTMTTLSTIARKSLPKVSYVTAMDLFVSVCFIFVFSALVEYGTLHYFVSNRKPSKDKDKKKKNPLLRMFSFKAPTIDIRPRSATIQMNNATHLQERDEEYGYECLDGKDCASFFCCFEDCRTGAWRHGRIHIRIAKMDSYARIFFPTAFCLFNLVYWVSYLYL
# Sodium channel protein type 2 subunit alpha, sequence (Q99250 whole entry): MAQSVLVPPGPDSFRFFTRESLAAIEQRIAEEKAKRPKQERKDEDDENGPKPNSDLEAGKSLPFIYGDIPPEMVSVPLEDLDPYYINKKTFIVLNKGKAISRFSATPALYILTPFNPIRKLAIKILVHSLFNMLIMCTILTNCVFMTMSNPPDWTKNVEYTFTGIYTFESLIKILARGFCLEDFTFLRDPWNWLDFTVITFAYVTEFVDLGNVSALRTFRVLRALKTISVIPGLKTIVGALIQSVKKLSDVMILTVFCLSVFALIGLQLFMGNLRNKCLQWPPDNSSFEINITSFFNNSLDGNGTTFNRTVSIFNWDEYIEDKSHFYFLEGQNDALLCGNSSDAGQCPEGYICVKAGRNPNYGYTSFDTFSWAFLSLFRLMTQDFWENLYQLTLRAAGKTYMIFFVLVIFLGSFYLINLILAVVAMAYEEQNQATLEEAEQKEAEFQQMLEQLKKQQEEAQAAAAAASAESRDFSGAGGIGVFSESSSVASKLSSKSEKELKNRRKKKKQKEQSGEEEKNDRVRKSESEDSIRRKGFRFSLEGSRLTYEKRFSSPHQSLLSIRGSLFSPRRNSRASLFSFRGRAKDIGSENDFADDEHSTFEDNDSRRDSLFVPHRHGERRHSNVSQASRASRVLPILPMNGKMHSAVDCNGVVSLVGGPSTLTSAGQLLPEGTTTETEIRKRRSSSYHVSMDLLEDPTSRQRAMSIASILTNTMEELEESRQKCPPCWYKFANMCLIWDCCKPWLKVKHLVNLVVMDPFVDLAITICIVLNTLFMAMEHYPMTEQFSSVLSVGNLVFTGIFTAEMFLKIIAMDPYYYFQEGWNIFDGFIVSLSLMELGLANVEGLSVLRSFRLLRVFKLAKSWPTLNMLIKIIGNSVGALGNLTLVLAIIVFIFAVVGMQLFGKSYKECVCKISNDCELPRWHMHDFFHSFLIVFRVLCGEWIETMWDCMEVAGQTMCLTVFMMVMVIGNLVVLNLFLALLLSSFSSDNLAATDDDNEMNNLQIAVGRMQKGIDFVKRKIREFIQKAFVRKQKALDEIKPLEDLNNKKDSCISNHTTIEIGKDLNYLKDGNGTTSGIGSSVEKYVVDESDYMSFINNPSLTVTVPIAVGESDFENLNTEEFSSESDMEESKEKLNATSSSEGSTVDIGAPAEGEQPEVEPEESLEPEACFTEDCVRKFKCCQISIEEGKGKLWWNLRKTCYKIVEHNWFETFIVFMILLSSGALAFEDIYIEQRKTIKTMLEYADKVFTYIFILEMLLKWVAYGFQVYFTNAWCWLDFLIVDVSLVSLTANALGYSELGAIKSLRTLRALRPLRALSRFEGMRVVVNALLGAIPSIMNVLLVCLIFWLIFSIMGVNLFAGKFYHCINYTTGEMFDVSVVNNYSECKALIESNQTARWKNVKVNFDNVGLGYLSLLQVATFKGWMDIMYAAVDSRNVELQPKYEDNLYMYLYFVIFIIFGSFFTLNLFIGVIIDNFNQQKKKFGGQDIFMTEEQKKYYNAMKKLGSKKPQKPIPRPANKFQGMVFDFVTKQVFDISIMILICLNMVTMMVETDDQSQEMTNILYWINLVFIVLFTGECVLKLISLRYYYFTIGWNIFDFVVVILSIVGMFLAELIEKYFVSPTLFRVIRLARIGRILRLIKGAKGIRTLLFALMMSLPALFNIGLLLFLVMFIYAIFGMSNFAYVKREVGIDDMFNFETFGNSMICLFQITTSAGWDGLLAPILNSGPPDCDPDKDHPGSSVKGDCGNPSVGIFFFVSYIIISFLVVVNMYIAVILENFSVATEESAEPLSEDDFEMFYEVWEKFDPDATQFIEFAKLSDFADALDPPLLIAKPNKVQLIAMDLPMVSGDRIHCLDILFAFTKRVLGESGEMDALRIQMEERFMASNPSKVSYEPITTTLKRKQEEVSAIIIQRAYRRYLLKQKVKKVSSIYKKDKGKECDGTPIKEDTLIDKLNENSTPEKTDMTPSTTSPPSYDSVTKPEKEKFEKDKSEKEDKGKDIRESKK
Ct [4],fold change (FC) [6],Cp [8],IC50 [9],Activity [10],EC50 [11],Compound,ED50 [1],TD50 at 0.5 h [2],Activity [3],Activity [5],selectivity ratio [7]
–,–,–,–,–,–,NC(=O)N1c2ccccc2C=Cc2ccccc21 [CARBAMAZEPINE],> 100 mg/kg,–,–,–,–
458.72 ng/mL,1.14,866.91 ng/mL,19.9 µM,–,–,O=C1CC(c2ccccc2F)n2nc(-c3ccccc3F)nc2N1 (configuration not stated),23.7 mg/kg,> 267 mg/kg,100%,Active; Moderate Protection,> 11.3
–,–,–,–,–,–,O=C1CC(c2ccccc2Cl)n2nc(-c3ccccc3F)nc2N1 (configuration not stated),–,–,–,Active; Moderate Protection,–
661.3 ng/mL,2.21,1186.41 ng/mL,–,Dose-dependent-effect,0.82 µM,CCCCN1C(=O)CC(c2ccccc2)n2nc(-c3ccc(C)cc3)nc21 (configuration not stated),18.3 mg/kg,> 267 mg/kg,100%,–,> 14.6
–,–,–,–,–,–,CCCC(CCC)C(=O)O [VALPROIC ACID],149 mg/kg,–,–,–,–
–,–,–,–,–,–,O=C1NC(=O)C(c2ccccc2)(c2ccccc2)N1 [PHENYTOIN],> 300 mg/kg,–,–,–,–
696.98 ng/mL,2.41,1202.06 ng/mL,35 µM,Dose-dependent-effect,1.24 µM,CCCCN1C(=O)CC(c2ccccc2)n2nc(-c3ccc(OC)cc3)nc21 (configuration not stated),17.1 mg/kg,> 267 mg/kg,100%,–,> 15.6

# From ChEMBL document CHEMBL6103572, “Design, synthesis and structure-activity relationship of novel 1,2,4-triazolopyrimidin-5-one derivatives targeting GABAA1 and Nav1.2 with antiepileptic activity” (Eur J Med Chem, 2025)
